From patent US6632797B2, “Method of treating angiogenesis” (priority 1996, dated 2003)

Key:
eye opening = assay: Eye opening of new-born mice; assay type: in vivo; details: 192 μg/g/day, daily injections day 0 to day 7; controls 13.6 and 13.5 days
Source text: Growth factors are involved in processes occuring in new-born mammals. The biological process of eye opening is one example where specific growth factors affect the timing and completeness of the event.
Three groups of mice, 40 animals in each group were used. […] The third group served as a control without any treatment.

[1] = test system: Fibroblast growth factor (FGF); assay: Interaction between FGF and radioactive IP3, co-elution on Sephadex G-25 / Heparin-Sepharose columns; assay type: binding; details: co-elution from Sephadex G-25, 50 mM Hepes pH 7.4
Procedure: The mixture was incubated for 1 hour at 4° C.
This type of column fractionate substances according to molecular weight. Substances with molecular weight exceeding 1500 will not penetrate the microspheres of the column and will accordingly elute quite soon after being loaded to the column, while smaller molecules will appear later as they partly or totally penetrate the microspheres depending on the molecular weight.
The incubate was loaded on the column and was uluted with 50 mM Hepes in fractions of 0.4 ml each.
To further determine the interaction the fractions with radioactivity and UV absorbance were loaded on a Heparin-Sepharose CL-6B column (Pharmacia Biotech, Sweden) (volume 25 ml, height 20 cm). […] Elution was performed with 50 mM Hepes, pH 7.4 and each fraction of 1 ml was collected for determination of radioactivity and UV absorbance. A peak with radioactivity but without UV absorption was loaded on a similar Sephadex G-25 column as described above and was eluted with the same type of buffer. Maximum radioactivity was obtained in fraction number 13 i.e. in this case the substance with radioactivity was more retained on the column.

[2] = Binding constants to the polyamine spermine; assay type: physicochemical; details: 1:1:5 complex; 0.1 M N-tetramethylbromide at 25° C.
Procedure: The interaction between a polyamine, spermine and different triphosphorylated compounds were investigated in order to determin the binding constants. Spermine is a basic polyamine comprising domains of similar basicity to basic domains in growth factors. Spermine and the different phosphorylated compounds forms different complexes and the 1:1:5 complex was used as the complex for determination of binding constants.
The following binding constants, log Ks was determined in 0.1 M N-tetramethylbromide at 25° C.: […]

[3] = test system: Vascular permeability factor (VPF); assay: VPF-induced vascular permeability, Evans Blue distribution in guinea pigs; assay type: in vivo, guinea pig; details: 5 mg/kg intravenous; after 60 minutes; control 62 mm^2
Procedure: Vascular permeability factor (VPF) promotes extravasation and oedema formation. Evans Blue was injected intravenously to 15 guinea pigs. This dye binds to plasma proteins and thereby provides a marker for vascular permeability to macromolecules.
50 mg of VPF was injected to each animal and the distribution of Evans Blue was measured.

[4] = test system: fibroblast growth factor basic (bFGF); assay: bFGF/Matrigel-induced swelling (tumor-like matrix) in nude mice; assay type: in vivo
Procedure: In a procedure similar to example 3 fibroblast growth factor basic (bFGF) was used.
D-myo-inositol-1,2,6-trisphosphate (IP3) was administered to five mice while another group of five mice, recieving saline, were a control group.

[5] = test system: phosphatidyl inositol 3′ kinase (PI 3′-kinase); assay: Interstitial fluid pressure (PIF) in rat hind paw, wortmannin-induced decrease; assay type: in vivo, Wistar Möller rats; details: 5 μg in 0.1 ml intravenous before wortmannin
Source text: The enzyme phosphatidyl inositol 3′ kinase (PI 3′-kinase) is implicated in a number of growth factor induced responses such as mitogenesis, chemotaxis, membrane ruffling and the balance between osteoclasts and osteoblasts. Furthermore it is known that inactivation of PI 3′ kinase leads to increased oedema formation expressed as a decrease of interstitial fluid pressure (PIF) in animal models.
An inhibitor of PI 3′ kinase such as wortmannin renders a decrease of PIF as a consequence of inactivation of PI 3′ kinase.
The measurements were performed on female Wistar Möller rats (200-250 g), anesthetized with pentobarbital (50 mg/kg i.p.).
PIF was measured on the dorsal side of the hind paw with sharpened glass capillarier (tip diameter 2-7 μm) filled with 0.5 M NaCl coloured with Evans Blue and connected to a serve-controlled counter pressure system. The punctures were performed through intact skin using a stereomicroscope. The pipette-tip was located 0.3-0.5 mm below the skin. Pressure measurements were made 2.5-3.0 mm from the center of injection. The normal transcapillary pressure gradient is about 0.5 mm Hg.
Three sets of experiments were performed with six animals in each set.
In the first set of experiment the vehicle for wortmannin, DMSO diluted in saline, 5 μl, was injected subdermally using a chromatography syringe. […]

scarr formation on skin = assay: Scar formation on scratches of the epidermis of a human hand, topical application; assay type: in vivo; details: topical solution, observation over 10 days
Procedure: To two of the scratches a solution comprising IP3 was applied topically while two of the scratches served as controls. Occular investigation was performed every day over a period of 10 days.

[6] = biological target: bovine brain clathrin assembly protein-2 (AP-2); assay: Binding to clathrin assembly protein-2, competition with tritiated inositoltetraphosphate; details: competition with 10 nM tritiated inositoltetraphosphate, on ice, ten minutes
Procedure: The binding assay was done in a total volume of 100 μl buffer containing […] Na HEPES pH 7.1, […], […], 5 mg/ml IgG, 10 nM tritiated inositoltetraphosphate and 1.46 μg of AP-2. […] Incubation was carried out on ice for a period of ten minutes and then the protein was co-precipitated with IgG using 5% (w/w) polyethylene glycol and pelleted by centrifugation at […] for 10 minutes. The supernatants were aspirated, the pellets were wasted with 0.2 ml water and resuspended in 0.2 ml water and transferred to scintillation vials. 5.0 ml of cyto scint fluid was added to each vial and the radioactivity was measured.

**Q.** Which “eye opening, medium value” (eye opening) does the source give for O=P(O)(O)OC1C(O)C(O)C(O)C(OP(=O)(O)O)C1OP(=O)(O)O [IP3, D-myo-inositol-1,2,6-trisphosphate] here?
**A.** 15.3 days

**Q.** What about the “interaction between FGF and IP3” value [1] of the same molecule?
**A.** strong interaction

**Q.** What about the “log Ks” value [2] of the same molecule?
**A.** 5.16

**Q.** What about the “average area covered with Evans Blue” value [3] of the same molecule?
**A.** 15 mm^2

**Q.** What about the “volume of the formed matrix” value ([4]; Day 1) of the same molecule?
**A.** 180 mm^3

**Q.** What about the “volume of the formed matrix” value ([4]; Day 3) of the same molecule?
**A.** 120 mm^3

**Q.** What about the “volume of the formed matrix” value ([4]; Day 5) of the same molecule?
**A.** 110 mm^3

**Q.** And the “volume of the formed matrix” value ([4]; Day 7)?
**A.** 120 mm^3

**Q.** And the “volume of the formed matrix” value ([4]; Day 8)?
**A.** 110 mm^3

**Q.** And the “volume of the formed matrix” value ([4]; Day 9)?
**A.** 120 mm^3

**Q.** What about the “histological examinations of the animals” value ([4]; group where IP3 was administered) of the same molecule?
**A.** anti-angiogenic effects

**Q.** What about the “effect of pretreatment on wortmannin-induced decrease in PIF” value [5] of the same molecule?
**A.** abolished decrease in PIF

**Q.** What about the “scarr formation compared to the control” value (scarr formation on skin) of the same molecule?
**A.** formed scarr in a delayed manner

**Q.** What about the IC50 [6] of the same molecule?
**A.** 0.6 ± 0.1 µM
